Assay results taken from ChEMBL document CHEMBL1649150, “P-glycoprotein-mediated transport of moxifloxacin in a Calu-3 lung epithelial cell model” (Antimicrob Agents Chemother, 2009).

Tests used:
[1] = system: P-glycoprotein; assay: P-glycoprotein-mediated transport in human Calu3 cells expressing P-glycoprotein assessed as maximum apparent permeability from apical to basolateral side at 50 uM in presence of in presence of 25 uM of p-glycoprotein and MRP transport inducer rifampin; format: ADME, cell-based, Calu-3
[2] = system: P-glycoprotein; assay: Activity at P-glycoprotein in human Calu3 cells; format: ADME, cell-based, Calu-3
[3] = (§1) P-glycoprotein-mediated transport in human Calu3 cells expressing P-glycoprotein assessed as maximum apparent permeability from apical to basolateral side at 50 uM; format: ADME, cell-based, Calu-3; details: calu-3, 50 µM, TDE = time-dependent effect
[4] = system: P-glycoprotein; assay: as §1; format: ADME, cell-based, Calu-3
[5] = system: P-glycoprotein; assay: P-glycoprotein-mediated transport in human Calu3 cells expressing P-glycoprotein assessed as maximum apparent permeability from basolateral to apical side; format: ADME, cell-based, Calu-3
[6] = Cmax in healthy human at 400 […]; format: ADME, organism-based; details: in vivo
[7] = system: P-glycoprotein; assay: P-glycoprotein-mediated transport in human Calu3 cells expressing P-glycoprotein assessed as maximum apparent permeability from basolateral to apical side at 50 uM in presence of in presence of 25 uM of p-glycoprotein and MRP transport inducer rifampin; format: ADME, cell-based, Calu-3
[8] = Apparent passive permeability across human Calu3 cells at 350 ug/ml; format: ADME, cell-based, Calu-3
[9] = system: P-glycoprotein; assay: P-glycoprotein-mediated transport in human Calu3 cells expressing P-glycoprotein assessed as minimum apparent permeability from basolateral to apical side; format: ADME, cell-based, Calu-3
[10] = Apparent passive permeability across human Calu3 cells at < 10 ug/ml; format: ADME, cell-based, Calu-3
[11] = (§2) P-glycoprotein-mediated transport in human Calu3 cells expressing P-glycoprotein assessed as maximum apparent permeability from basolateral to apical side at 50 uM; format: ADME, cell-based, Calu-3; details: calu-3, 50 µM, TDE = time-dependent effect
[12] = system: P-glycoprotein; assay: as §2; format: ADME, cell-based, Calu-3
[13] = P-glycoprotein-mediated transport in human Calu3 cells assessed as efflux ratio of permeability from […] side at 50 uM; format: ADME, cell-based; details: calu-3, 50 µM
[14] = system: P-glycoprotein; assay: P-glycoprotein-mediated transport in human Calu3 cells expressing P-glycoprotein assessed as maximum apparent permeability from basolateral to apical side at 50 uM in presence of in presence of 10 uM of p-glycoprotein and MRP transport inducer rifampin; format: ADME, cell-based, Calu-3
[15] = system: P-glycoprotein; assay: P-glycoprotein-mediated transport in human Calu3 cells expressing P-glycoprotein assessed as maximum apparent permeability from apical to basolateral side at 50 uM in presence of in presence of 10 uM of p-glycoprotein and MRP transport inducer rifampin; format: ADME, cell-based, Calu-3

Papp A→B at 50 µM [1]: 4.08 ×10⁻⁶ cm/s
Km [2]: 64.6 µg/mL
Papp [3]: tde
Papp A→B at 50 µM [4]: 5.25 ×10⁻⁶ cm/s
Papp B→A [5]: 13.6 ×10⁻⁶ cm/s
Cmax [6]: 5000 ng/mL
Papp B→A at 50 µM [7]: 12.5 ×10⁻⁶ cm/s
Papp at 350 ug/ml [8]: 7.9 ×10⁻⁶ cm/s
Papp B→A [9]: 7.9 ×10⁻⁶ cm/s
Papp [10]: 13.6 ×10⁻⁶ cm/s
Papp [11]: tde
Papp B→A at 50 µM [12]: 10.5 ×10⁻⁶ cm/s
Ratio [13]: 2
Papp B→A at 50 µM [14]: 11.9 ×10⁻⁶ cm/s
Papp A→B at 50 µM [15]: 4.35 ×10⁻⁶ cm/s
Compound: COc1c(N2C[C@@H]3CCCN[C@@H]3C2)c(F)cc2c(=O)c(C(=O)O)cn(C3CC3)c12 [MOXIFLOXACIN]
